For data set [1], the system named is non-invasive fungus-induced rhinosinusitis patients. The experiment in a line: Amphotericin B nasal irrigation study, three month follow-up of 53 patients. The format is in vivo, human. The source says: In addition to patient interviewing, CT scan analysis, visual examination, and fungal culture analysis, two types of evaluations were used to score the success of the treatment: an endoscopic evaluation and a patient symptom evaluation.

The test system is the same in data set [2]. As to the kind of experiment: Patient data collected during a one week period (amphotericin B nasal irrigations). Further details: Endoscopy Score B / Endoscopy Score A / Symptom Score B: scale not given here. The format is in vivo, human. The source says: Only previously seen patients that were instructed to use the antifungal amphotericin B nasal irrigations were entered into this study.
During a one week period, twenty patients returned to the physician's office (Table II). The average age of the returning patients was 47 years (range 16-74 years). The patients were using the amphotericin B irrigations for an average duration of about six months (range 1-16 months). […] In addition, some patients were using topical and systemic steroid therapy. Further, some patients were using an antibiotic nasal irrigation in addition to the antifungal irrigations. The antibacterial solution contained 80 mg gentamicin per L saline (Wilson's solution). Some patients mixed the antibacterial solution with the antifungal solution and then performed the nasal irrigations while others used each solution separately in a sequential manner. Some patients also had other diseases including asthma (15 of the 20 patients) and colitis (2 of the 20 patients).

For data set [3] the test system is unchanged. As to the kind of experiment: Amphotericin B irrigations in patients without previous nasal surgery. The format is in vivo, human. The text has this:
A person was diagnosed with non-invasive fungus-induced rhinosinusitis and instructed to perform amphotericin B irrigations twice a day.
A person was diagnosed with non-invasive fungus-induced rhinosinusitis and instructed to perform amphotericin B irrigations twice a day, which was later increased to four times a day.
A person was diagnosed with non-invasive fungus-induced rhinosinusitis and instructed to perform amphotericin B irrigations twice a day. This patient had been given intramuscular steroid shots every 3 to 8 months with the last shot being administered about seven months prior to starting the amphotericin B irrigations.

For data set [4], the system named is non-invasive fungus-induced rhinosinusitis patient. As to the kind of experiment: Eosinophil count in mucosal biopsies after antifungal treatment. The data set is classed as in vivo, human. As to conditions: after nine months of irrigations twice a day. The text has this:
A person was diagnosed with non-invasive fungus-induced rhinosinusitis and instructed to perform amphotericin B irrigations twice a day. After nine months of amphotericin B irrigations, the patient underwent sinus surgery for further improvement. During the surgery mucosal biopsies were collected and the eosinophil count compared to the those obtained from biopsies collected from the patient during a surgery prior to the antifungal treatment.

In data set [5] the test system is non-invasive fungus-induced rhinosinusitis patients. As to the kind of experiment: Itraconazole nasal irrigations in rhinosinusitis patients. Set-up: symptom score before itraconazole irrigations / symptom score after itraconazole irrigations / endoscopic score, right side, before / endoscopic score, right side, after / endoscopic score, left side, before / endoscopic score, left side, after: scale not given here. The data set is classed as in vivo, human. As for the experimental part: Three non-invasive fungus-induced rhinosinusitis patients (person, person, and person) were instructed to perform nasal irrigation with an itraconazole solution. The itraconazole solution contained about 100 mg of itraconazole per L of solution (10% PEG-400 in sterile water) and was prepared as described herein. […] Each patient reported marked improvement in symptoms within two weeks of starting the itraconazole irrigations (symptom scores: −1 to +2 and −1 to +1).
After treatment with itraconazole, that patient reported symptom improvement (symptom score: from −1 to 0).

A further data set deals with chronic asthma patients. As to the kind of experiment: Chronic asthma symptoms in patients of the amphotericin B irrigation study.
The next data set has as its system rhinosinusitis patient. The experiment in a line: Single patient, one-sided then two-sided amphotericin B irrigation with surgery, RAST to Alternaria.
The mark [6] stands for this setting: after treatment, three month follow-up.
Where [7] appears, read: after antifungal treatment, nasal irrigations 1-16 months, 1-2x day, one line per patient, r26 and r28 switched to itraconazole for the last month, r13 stopped 8 months earlier.
[8] abbreviates: before antifungal treatment (baseline), one line per patient.
Setting [9] is: sixteen days after starting itraconazole irrigations, one patient.

Data on two compounds can be found in patent US6555566B2, “Methods and materials for treating and preventing inflammation of mucosal tissue” (Mayo Foundation for Medical Education and Research, priority 1997, dated 2003).

Each structure is given as a SMILES string. Where “and” joins values, the source holds several entries; their conditions need not be identical. Equal entries are not always repeated.

Procedure for chronic asthma patients: One hundred and thirty-two consecutive rhinosinusitis patients were entered into a study to evaluate the use of an antifungal agent to treat non-invasive fungus-induced rhinosinusitis. […] The 125 non-invasive fungus-induced rhinosinusitis patients were started on an antifungal treatment of about 20 mL of an amphotericin B solution per nostril, two to four times daily for at least three months. The concentration of the amphotericin B solution was about 100 mg per liter of saline or water. A 20 mL bulb was used by the patient to mucoadminister the amphotericin B solution into the patient's nasal-paranasal anatomy. Data were compiled for 53 of the patients who had returned for their three month follow-up analysis.

`C[C@@H]1[C@H](O)[C@@H](C)/C=C/C=C/C=C/C=C/C=C/C=C/C=C/[C@H](O[C@@H]2O[C@H](C)[C@@H](O)[C@H](N)[C@@H]2O)C[C@@H]2O[C@](O)(C[C@@H](O)C[C@@H](O)[C@H](O)CC[C@@H](O)C[C@@H](O)CC(=O)O[C@H]1C)C[C@H](O)[C@H]2C(=O)O` [amphotericin B]: the “patients going from endoscopic evaluation stage 2 or 3 to stage 0” value in data set [1] (after three months, about 20 mL of 100 mg/L solution per nostril, two to four times daily) is 33 of the 53. Also, in data set [1] (setting [6]), the “patients giving themselves symptom stage 0 (baseline/no change)” value is on record as “six of the 53”, the “patients giving themselves symptom stage 1 (good/improved)” value is “three of the 53” and the “patients giving themselves symptom stage 2 (very good/free of symptoms)” value is 44 of the 53. For the same compound, the “patients that did not respond to the treatment (of 53)” value in data set [1] (endoscopic evaluation after three months) is “nine”. In data set [1] (five of the nine non-responders had mucus samples available), the “non-responding patients whose mucus fungal organisms were resistant to the agent” value is “all five”. For the same compound, in data set [1] (one patient with bilateral rhinosinusitis, no recent surgery, no steroids, 20 mL of 100 mg/L per nostril two times daily, four months), the “CT scan finding after treatment” value was “complete disappearance of opacity and symptoms characteristic of rhinosinusitis”. The “number of different fungal species in mucus after versus before treatment” value in data set [1] (several patients, fungal organism culturing) is reported as “remarkably reduced”. In data set [2] (setting [7]), the “Endoscopy Score A” value is 0 (10×) and 3 (5×) and 1 (2×); the “Symptom Score A” value was “+1 (6×) and +2 (6×) and 0 (6×) and −2 and 1”. For the same compound, in data set [2] (setting [8]), the “Endoscopy Score B” value was 1 (3×) and 2 (5×) and 3 (10×) and 0; the “Symptom Score B” value was −1 (14×) and −2 (6×). The “endoscopic evaluation, overall outcome of the twenty patients” value in data set [2] (nasal irrigations, average about six months) is listed as “most patients had an observable improvement”. The “symptom score before treatment” value in data set [3] (baseline, no previous nasal surgery, one line per patient) was −1. Also, the “endoscopic score after treatment” value in data set [3] (irrigations twice a day (b227 later four times a day) for fourteen, sixteen, four months) was 0. Moreover, the “eosinophil count in mucosal biopsies, all sinuses except the frontal” value in data set [4] is on record as less than 5%. Besides, the “eosinophil count in the frontal sinus biopsy” value in data set [4] (frontal sinus obstructed, presumably not reached) stood at 10%. In data set [5] (one patient (third patient)), the “local reaction to nasal irrigations” value is given as “burning sensation”. Moreover, the “patients no longer exhibiting asthma symptoms who stopped taking their asthma medication” value in the data set with chronic asthma patients (after starting treatment) is on record as 26 of the 28. The “asthmatic patients declaring improvement or complete elimination of asthma symptoms” value in the data set on chronic asthma patients (after three months of nasal irrigation treatment of Example 2) is reported as 28 of the 37. The “patients with improved pulmonary function test after versus before treatment” value with chronic asthma patients (four of the 28 improved patients tested) is given as “all four”. The “patients taking steroids after starting treatment” value in the data set with chronic asthma patients (of twenty-three patients on systemic steroids for asthma before) is given as “none”. In addition, in the data set on rhinosinusitis patient (after surgery on the right side and irrigation of both sides for about seven weeks), the “RAST reading to Alternaria” value stood at 4.47 KU/L. Moreover, the “state of the treated left paranasal sinuses” value with rhinosinusitis patient (at every post-operative visit, surgery plus irrigation of the left side) is recorded as “clear of disease”. The “RAST reading to Alternaria” value in the data set on rhinosinusitis patient (before treatment (baseline)) is recorded as 6.23 KU/L. Also, the “RAST reading to Alternaria” value in the data set with rhinosinusitis patient (only left side operated and irrigated (about 20 mL, 100 mg/L, two to four times daily), eight to ten weeks after symptoms disappeared on the left) is 7.16 KU/L. The “patient state by CT scan” value in the data set on rhinosinusitis patient (six months after the last surgery, both sides irrigated) was “symptom-free and disease-free”. In addition, the “RAST reading to Alternaria” value with rhinosinusitis patient (six months post-operation, only left side treated, rhinosinusitis diagnosed on the right) was 10.0 KU/L.

Consider `CCC(C)n1ncn(-c2ccc(N3CCN(c4ccc(OCC5COC(Cn6cncn6)(c6ccc(Cl)cc6Cl)O5)cc4)CC3)cc2)c1=O` (centres unmarked) [itraconazole], for which, in data set [5] (about 100 mg per L (10% PEG-400 in sterile water), within two weeks, patients not responding to amphotericin B, one line per patient), the “symptom score after itraconazole irrigations” value was “+2 and +1 and 0”. In addition, in data set [5] (baseline, one line per patient), the “symptom score before itraconazole irrigations” value is given as −1. Moreover, in data set [5] (baseline, one patient), the “endoscopic score, left side, before” value is recorded as 1 and the “endoscopic score, right side, before” value was found to be 1. Moreover, the “local reaction to nasal irrigations” value in data set [5] (human, in vivo) was “did not have any adverse local reaction”. Besides, in data set [5] (setting [9]), the “endoscopic score, left side, after” value is reported as 1 and the “endoscopic score, right side, after” value stood at 0.
